The test system of data set [1] is human embryonic lung (HEL) fibroblast cells. The note with it: mock-infected HEL cells; microscopically visible alterations in cell morphology.
Data set [2] addresses SARS-CoV-2 nsp5 main protease (M^pro) (Severe acute respiratory syndrome coronavirus 2, UniProt P0DTD1). Briefly: FRET-based M^pro enzymatic assay. In kind it is biochemical. Here is the method: Serial dilutions of the compounds were incubated with purified nsp5 protein in the presence of substrate (Dabcyl-KTSAVLQ↓SGFRKM-Edans-NH2), and peptide cleavage was followed by an increase in fluorescence. The compounds’ IC50 values were determined by Hill curve fitting. Values are the mean ± SEM (N = 3).
After transforming the pGEX-6P-1 plasmid in E. coli BL21 DE3 gold, nsp5 production was stimulated by overnight induction with 250 μM IPTG at a temperature of 17 °C. After centrifugation, the bacteria were resuspended in buffer consisting of: 50 mM Tris pH 8; 300 mM NaCl; 5 mM MgSO4; 1 mM PMSF; 10 μg/mL DNAse I; 0.25 mg/mL Lysozyme; 0.1%Triton X-100; and 10% glycerol. The cells were lysed by three cycles of sonication and centrifugation. The nsp5 protein was bound to Co-NTA agarose beads and eluted in lysis buffer containing 250 mM of imidazole. Next, the protein product was concentrated on a Vivaspin 20 centrifugal concentrator (10 kDa cut-off; GE Healthcare) and imidazole was removed by dialysis. Finally, the purified nsp5 was stored at −80 °C with 50% glycerol.
M^pro enzymatic assay. The fluorescence resonance energy transfer (FRET)-based protease assay was performed in black 384-well plates. Briefly, serial dilutions of the compounds were incubated with 80 nM nsp5 protein and 5 μM peptide substrate (Dabcyl-KTSAVLQ↓SGFRKM-Edans-NH2; Genscript) in buffer consisting of: 20 mM HEPES pH 6.5; 120 mM NaCl; 0.4 mM EDTA; 4 mM dithiothreitol; and 10% glycerol. The final DMSO content was 0.5%. Cleavage of the substrate was monitored for 40 min by measuring the increasing fluorescence in a Tecan Safire 2 plate reader (wavelength settings: excitation at 335 nm and emission at 493 nm). For each condition, enzyme activity was derived from the slope for the linear part of the curve and expressed relative to the activity in the condition receiving no compound. To determine the IC50 values, GraphPad Prism software was used to plot the % of enzyme activity against compound concentration and then fit the curves according to the equation Y = 100/(1 + (X/IC50)^HillSlope).

For data set [3], the system named is HCoV-229E. The data set can be described thus: Cytopathic effect (CPE) reduction assay with HCoV-229E in HEL cells. In kind it is cell-based, human coronavirus 229E. Conditions: for EC50: Human coronavirus 229E, 120 h, HCoV-229E-infected HEL cells, five days at 35 °C; for Selectivity Index MTS: ratio of CC50 to EC50-MTS; for Selectivity Index MTS / Selectivity Index Microscopy: only values of 10 or higher shown; for Selectivity Index Microscopy: ratio of MCC to EC50-microscopy.

The next data set deals with SARS-CoV-2. The data set can be described thus: RT-qPCR-based SARS-CoV-2 viral load reduction assay in A549-AT cells. It counts as cell-based. The note with it: for Antiviral activity EC99: 100-fold reduction in viral RNA copies in supernatant at day 3 p.i.; for EC90: Severe acute respiratory syndrome coronavirus 2, 72 h, 10-fold reduction in viral RNA copies in supernatant at day 3 p.i., read-out: Antiviral activity EC90. (Quantitative PCR measures a nucleic acid by following its amplification.)

Data set [4] has as its target SARS-CoV-2 nsp14 N7-MTase (Severe acute respiratory syndrome coronavirus 2, UniProt P0DTD1). The data set can be described thus: Radioactive filter-binding MTase assay, nsp14. In kind it is biochemical. Conditions: compound concentration of 200 µM.
The target of data set [5] is SARS-CoV-2 nsp10/nsp16 2'O-MTase (Severe acute respiratory syndrome coronavirus 2, UniProt P0DTD1). Briefly: Radioactive filter-binding MTase assay, nsp10/nsp16. It counts as biochemical. Conditions: compound concentration of 200 µM.
Data set [6] is described as follows: in vitro. The note with it: human.
Data set [7] concerns HCoV-229E. The data set can be described thus: One-cycle time-of-compound addition (TOA) assay with HCoV-229E in HEL cells. It counts as cell-based, human coronavirus 229E. The note with it: compound added at 8 h p.i.; HEL cells lysed at 16 h p.i.; 33 15 µM, GC376 25 µM, GS-441524 20 µM, K22 15 µM.
A short description of data set [8]: in vitro. The note with it: human. The source holds these as a separate data set.
Setting [9] is: protection against virus-induced CPE by MTS cell viability assay, read-out: Antiviral EC50 MTS.
Setting [10] is: protection against virus-induced CPE by microscopic scoring, read-out: Antiviral EC50 Microscopy.

As a reminder, the IC50 is the concentration that inhibits the measured activity by half. Read a high IC50 as lower potency. As usually defined, the EC50 is the concentration that produces a half-maximal response. The EC90 is the point of the concentration-response curve where the effect stands at 90%. A word on the inhibition: it is the change of the read-out against control, counted positive when it falls.

Read-outs that look alike come from different tables or passages of the source. A value given as a limit tells only on which side of the number the result lay.

For `COC(=O)C[C@H](NC(=O)OCc1ccccc1)C(=O)N(Cc1ccc(F)cc1)C1(C(=O)NCc2ccccc2)CCN(Cc2ccccc2)CC1` [Compound 34], the “Cytotoxicity MCC (minimal cytotoxic concentration)” value (from here on “Cytotoxicity MCC”) in data set [1] stood at 81 µM. The compound further gave a half-maximal inhibitory concentration (IC50) in [2] of 38 ± 5 µM. In addition, the concentration for a half-maximal effect (EC50) with HCoV-229E [3] (setting [9]) turned out to be 3.4 ± 0.4 µM. Further, the 50% effective concentration (EC50) with HCoV-229E [3] (setting [10]) was determined as 3.1 ± 0.1 µM. Moreover, in the data set with HCoV-229E [3], the “Selectivity Index MTS” value came to 22 and the “Selectivity Index Microscopy” value was 26. Also, in the data set with SARS-CoV-2, the “Antiviral activity EC99” value is 13 µM and the concentration for an effect of 90% (EC90) turned out to be 8 µM. The inhibition at 200 µM in [4] was found to be 80%.

Consider `CC(C)(C)OC(=O)NC(Cc1ccccc1)C(=O)N(Cc1ccccc1)C1(C(=O)NCc2ccccc2)CCN(Cc2ccc(F)cc2)CC1` (stereo not drawn) [Compound 60, Tert-butyl(1-(benzyl(4-benzylcarbamoyl-1-(4-fluorobenzyl)piperidin-4-yl)amino)-1-oxo-3-phenylpropan-2-yl)carbamate], for which, in data set [1], the “Cytotoxicity MCC” value is recorded as at least 100 µM. Also, it took 68 ± 21 µM to reach half-maximal inhibition in data set [2] (IC50). Moreover, in the data set with HCoV-229E [3] (setting [9]), the concentration giving a half-maximal response (EC50) amounted to 4 ± 0.1 µM. Also, the 50% effective concentration (EC50) with HCoV-229E [3] (setting [10]) was 4.5 ± 0.2 µM. Also, in the data set with HCoV-229E [3], the “Selectivity Index MTS” value is given as over 25. Also, in the data set with SARS-CoV-2, the “Antiviral activity EC99” value was found to be 5.2 µM and the EC90 was 2.2 µM. In addition, the inhibition at 200 µM in data set [5] was determined as 80%.

Turning to `COC(=O)C[C@H](NC(=O)OCc1ccccc1)C(=O)N(Cc1ccccc1)C1(C(=O)NCc2ccccc2)CCN(Cc2ccccc2)CC1` [Compound 33], the CC50 in “in vitro [6]” is over 100 µM. The “Cytotoxicity MCC” value in data set [1] was over 100 µM. Further, the “inhibition of viral RNA synthesis” value with HCoV-229E [7] is “losing some activity”. The same compound showed a concentration for half-maximal inhibition (IC50) in data set [2] of 64 ± 8 µM. Further, in the data set on HCoV-229E [3] (setting [9]), the EC50 was determined as 3.3 ± 0.4 µM. In addition, the EC50 with HCoV-229E [3] (setting [10]) was determined as 3 ± 0.1 µM. Further, in the data set on HCoV-229E [3], the “Selectivity Index MTS” value is recorded as over 30 and the “Selectivity Index Microscopy” value is listed as over 33. In “in vitro [8]”, this compound gave a CC50 of 90 µM. Also, in the data set on SARS-CoV-2, the “Antiviral activity EC99” value was 14 µM and the 90% effect concentration (EC90) worked out at 9.3 µM.

Regarding `N#C[C@@]1(c2ccc3c(N)ncnn23)O[C@H](CO)[C@@H](O)[C@H]1O` [GS-441524, reference compound], the “Cytotoxicity MCC” value in data set [1] was over 100 µM. The “inhibition of viral RNA synthesis” value in the data set on HCoV-229E [7] is recorded as ~ 90%. Moreover, the EC50 in the data set on HCoV-229E [3] (setting [9]) is 2.3 ± 0.2 µM. For the same compound, the EC50 with HCoV-229E [3] (setting [10]) turned out to be 3.5 µM. In the data set with HCoV-229E [3], the “Selectivity Index MTS” value was over 43 and the “Selectivity Index Microscopy” value is given as over 29. Besides, in the data set with SARS-CoV-2, the “Antiviral activity EC99” value turned out to be 4.6 µM and the EC90 came out at 3.2 µM.
